Publication PMC9696309 (Metabolites, 2022)
Like-named read-outs stand apart in the source and are kept apart here.

How the values were obtained:
in vitro = conditions: African green monkey
SARS-CoV-2 = experiment: microbe, parasite or virus in culture; format: cell-based
[1] = tested on: severe acute RS-CoV 3CL^pr°; conditions: inhibition of severe acute RS-CoV 3CL^pr° activity; cited from earlier work

Row | SMILES | CC50 (in vitro) | IC50 (SARS-CoV-2) | IC50 (SARS-CoV-2; Severe acute respiratory syndrome coronavirus 2) | IC50 [1]
1 | COc1c(O)cc2oc(-c3ccc(O)cc3)c(OC)c(=O)c2c1O [Compound 7, 5,7,4’-trihydroxy-3,6-dimethoxy flavone] | 1070 µM | 664 µM | 664 µM | 
2 | O=c1cc(-c2ccc(O)cc2)oc2cc(O)cc(O)c12 [apigenin] |  |  |  | 281 µM
3 | CC[C@H](CC[C@@H](C)[C@H]1CC[C@H]2[C@@H]3CC=C4C[C@@H](O[C@@H]5O[C@H](CO)[C@@H](O)[C@H](O)[C@H]5O)CC[C@]4(C)[C@H]3CC[C@]12C)C(C)C [Compound 9, daucosterol] | 2550 µM |  |  | 
4 | O=c1cc(-c2ccc(O)c(O)c2)oc2cc(O)cc(O)c12 [luteolin] |  |  |  | 20.2 µM
5 | COc1ccc(-c2coc3cc(O)ccc3c2=O)cc1 [Compound 3, formononetin] | 1720 µM |  |  | 
